How the values were obtained:
Type in all cases: in vivo
Alopecurus myosuroides = assay: Post-emergence herbicidal action against ALOMY; settings: visual rating about 3 weeks after treatment
Method in brief: (§1)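 Post-emergence application onto green parts at the one-leaf stage, 2 to 3 weeks after sowing in sandy loam. Spray carried 0.5% additive at a water rate of 600 l/ha. Percent activity assessed by eye at about 3 weeks, where 100% means plants died and 0% matches controls.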

Veronica persica = assay: Post-emergence herbicidal action against VERPE
Method in brief: as §1

Hordeum murinum = assay: Post-emergence herbicidal action against HORMU
Method in brief: as §1

Pharbitis purpurea = assay: Post-emergence herbicidal action against PHBPU
Method in brief: as §1

Polygonum convolvulus = assay: Post-emergence herbicidal action against POLCO
Method in brief: as §1

Stellaria media = assay: Post-emergence herbicidal action against STEME
Method in brief: as §1

Lolium rigidum = assay: Post-emergence herbicidal action against LOLRI; settings: visual rating about 3 weeks after treatment
Method in brief: as §1

Avena fatua = assay: Post-emergence herbicidal action against AVEFA; settings: visual rating about 3 weeks after treatment
Method in brief: as §1

Abutilon theophrasti = assay: Post-emergence herbicidal action against ABUTH; settings: visual rating about 3 weeks after treatment
Method in brief: as §1

Matricaria inodora = assay: Post-emergence herbicidal action against MATIN
Method in brief: as §1

Setaria viridis = assay: Post-emergence herbicidal action against SETVI; settings: visual rating about 3 weeks after treatment
Method in brief: as §1

DIGSA = assay: Post-emergence herbicidal action against DIGSA; settings: visual rating about 3 weeks after treatment
Method in brief: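 Greenhouse-grown plants sprayed at one-leaf stage (2–3 weeks after sowing) with WP or EC formulations as aqueous suspension/emulsion plus 0.5% additive, 600 l/ha water. Activity rated visually about 3 weeks later versus untreated controls, 100% = plants dead, 0% = like controls.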

Viola tricolor = assay: Post-emergence herbicidal action against VIOTR
Procedure: Post-Emergence Herbicidal Action Against Harmful Plants and Crop Plant Compatibility Seeds of monocotyledonous and dicotyledonous weeds and crop plants are placed in sandy loam in plastic or wood-fibre pots, covered with soil and cultivated in a greenhouse under controlled growth conditions. 2 to 3 weeks after sowing, the test plants are treated at the one-leaf stage. The compounds of the invention, formulated in the form of wettable powders (WP) or as emulsion concentrates (EC), are then sprayed onto the green parts of the plants as aqueous suspension or emulsion with addition of 0.5% additive at a water application rate of 600 l/ha (converted). After the test plants have been kept in the greenhouse under optimum growth conditions for about 3 weeks, the activity of the preparations is rated visually in comparison to untreated controls. For example, 100% activity=the plants have died, 0% activity=like control plants. [table]

Amaranthus retroflexus = assay: Post-emergence herbicidal action against AMARE
Method in brief: as §1

Echinochloa crus-galli = assay: Post-emergence herbicidal action against ECHCG; settings: visual rating about 3 weeks after treatment
Method in brief: as §1

[1] = 80 g a.i./ha, visual rating about 3 weeks after treatment

| Structure (SMILES) | Herbicidal action against [%] ALOMY (Alopecurus myosuroides; 20 g a.i./ha) [%] | Herbicidal action against [%] ALOMY (Alopecurus myosuroides; 80 g a.i./ha) [%] | Herbicidal action against [%] VERPE (Veronica persica; 20 g a.i./ha) [%] | Herbicidal action against [%] VERPE (Veronica persica; 80 g a.i./ha) [%] | Herbicidal action against [%] HORMU (Hordeum murinum; 20 g a.i./ha) [%] | Herbicidal action against [%] HORMU (Hordeum murinum; 80 g a.i./ha) [%] | Herbicidal action against [%] PHBPU (Pharbitis purpurea; 80 g a.i./ha) [%] | Herbicidal action against [%] STEME (Stellaria media; 80 g a.i./ha) [%] | Herbicidal action against [%] LOLRI (Lolium rigidum; 20 g a.i./ha) [%] | Herbicidal action against [%] LOLRI (Lolium rigidum; 80 g a.i./ha) [%] | Herbicidal action against [%] AVEFA (Avena fatua; 20 g a.i./ha) [%] | Herbicidal action against [%] AVEFA (Avena fatua; 80 g a.i./ha) [%] | Herbicidal action against [%] ABUTH (Abutilon theophrasti; 80 g a.i./ha) [%] | Herbicidal action against [%] MATIN (Matricaria inodora; [1]) [%] | Herbicidal action against [%] SETVI (Setaria viridis; 80 g a.i./ha) [%] | Herbicidal action against [%] DIGSA (DIGSA; 20 g a.i./ha) [%] | Herbicidal action against [%] DIGSA (DIGSA; 80 g a.i./ha) [%] | Herbicidal action against [%] AMARE (Amaranthus retroflexus; 20 g a.i./ha) [%] | Herbicidal action against [%] AMARE (Amaranthus retroflexus; [1]) [%] | Herbicidal action against [%] ECHCG (Echinochloa crus-galli; 80 g a.i./ha) [%] | other results |
| --- | --- | --- | --- | --- | --- | --- | --- | --- | --- | --- | --- | --- | --- | --- | --- | --- | --- | --- | --- | --- | --- |
| CSCCOC(=O)C1C=CC(NC(=O)C2(C(F)(F)F)CC(c3cccc(C#N)c3)=NO2)C1 (mixture of isomers) [Example I-44] | 90 | 90 | 90 | 90 | 80 | 80 | 80 | 90 | 90 | 90 | 80 | 90 | 80 | 80 | 90 | 90 | 90 | 80 | 80 | 80 | Herbicidal action against [%] POLCO (Polygonum convolvulus; 20 g a.i./ha): 80%; Herbicidal action against [%] POLCO (Polygonum convolvulus; 80 g a.i./ha): 90%; Herbicidal action against [%] SETVI (Setaria viridis; 20 g a.i./ha): 80%; Herbicidal action against [%] VIOTR (Viola tricolor; 80 g a.i./ha): 90%; Herbicidal action against [%] ECHCG (Echinochloa crus-galli; 20 g a.i./ha): 80% |
| CSCCOC(=O)C1C=CC(NC(=O)C2(C)CC(c3cc(F)cc(F)c3)=NO2)C1 (centres unmarked) [Example I-06] | 100 | 100 | 80 | 90 | 90 | 90 | 80 | 90 | 100 | 100 | 100 | 100 | 80 | 80 | 90 | 90 | 90 | 80 | 80 | 90 | Herbicidal action against [%] PHBPU (Pharbitis purpurea; 20 g a.i./ha): 80%; Herbicidal action against [%] POLCO (Polygonum convolvulus; 20 g a.i./ha): 90%; Herbicidal action against [%] POLCO (Polygonum convolvulus; 80 g a.i./ha): 90%; Herbicidal action against [%] STEME (Stellaria media; 20 g a.i./ha): 90%; Herbicidal action against [%] ABUTH (Abutilon theophrasti; 20 g a.i./ha): 80%; Herbicidal action against [%] SETVI (Setaria viridis; 20 g a.i./ha): 80%; Herbicidal action against [%] VIOTR (Viola tricolor; 20 g a.i./ha): 90%; Herbicidal action against [%] ECHCG (Echinochloa crus-galli; 20 g a.i./ha): 90% |
| CSCCOC(=O)C1C=CC(NC(=O)C2(C(F)(F)F)CC(c3cc(F)cc(F)c3)=NO2)C1 (centres unmarked) [Example I-17] | 90 | 90 | 80 | 80 | 90 | 90 | 80 | 90 | 100 | 100 | 100 | 100 | 80 | 80 | 80 | 90 | 90 | 80 | 80 | 90 | Herbicidal action against [%] PHBPU (Pharbitis purpurea; 20 g a.i./ha): 80%; Herbicidal action against [%] POLCO (Polygonum convolvulus; 20 g a.i./ha): 80%; Herbicidal action against [%] POLCO (Polygonum convolvulus; 80 g a.i./ha): 80%; Herbicidal action against [%] STEME (Stellaria media; 20 g a.i./ha): 80%; Herbicidal action against [%] ABUTH (Abutilon theophrasti; 20 g a.i./ha): 80%; Herbicidal action against [%] MATIN (Matricaria inodora; 20 g a.i./ha): 80%; Herbicidal action against [%] SETVI (Setaria viridis; 20 g a.i./ha): 80%; Herbicidal action against [%] VIOTR (Viola tricolor; 20 g a.i./ha): 80%; Herbicidal action against [%] VIOTR (Viola tricolor; 80 g a.i./ha): 80%; Herbicidal action against [%] ECHCG (Echinochloa crus-galli; 20 g a.i./ha): 80% |
| CSCCOC(=O)C1C=CC(NC(=O)C2(CCl)CC(c3cc(F)cc(F)c3)=NO2)C1 (centres unmarked) [Example I-31] | 90 | 90 | 80 | 80 | 90 | 90 | 90 | 80 | 90 | 90 | 90 | 90 | 80 | 80 | 90 | 90 | 90 | 80 | 80 | 90 | Herbicidal action against [%] POLCO (Polygonum convolvulus; 20 g a.i./ha): 90%; Herbicidal action against [%] POLCO (Polygonum convolvulus; 80 g a.i./ha): 90%; Herbicidal action against [%] STEME (Stellaria media; 20 g a.i./ha): 80%; Herbicidal action against [%] MATIN (Matricaria inodora; 20 g a.i./ha): 80%; Herbicidal action against [%] SETVI (Setaria viridis; 20 g a.i./ha): 80%; Herbicidal action against [%] VIOTR (Viola tricolor; 20 g a.i./ha): 80%; Herbicidal action against [%] VIOTR (Viola tricolor; 80 g a.i./ha): 80%; Herbicidal action against [%] ECHCG (Echinochloa crus-galli; 20 g a.i./ha): 90% |
| C=CC1(C(=O)NC2C=CC(C(=O)OCCSC)C2)CC(c2cc(F)cc(F)c2)=NO1 (centres unmarked) [Example I-18] | 100 | 100 | 90 | 90 | 100 | 100 | 80 | 90 | 90 | 90 | 90 | 100 | 90 | 90 | 80 | 90 | 90 | 90 | 90 | 90 | Herbicidal action against [%] PHBPU (Pharbitis purpurea; 20 g a.i./ha): 80%; Herbicidal action against [%] POLCO (Polygonum convolvulus; 20 g a.i./ha): 90%; Herbicidal action against [%] POLCO (Polygonum convolvulus; 80 g a.i./ha): 90%; Herbicidal action against [%] STEME (Stellaria media; 20 g a.i./ha): 90%; Herbicidal action against [%] ABUTH (Abutilon theophrasti; 20 g a.i./ha): 90%; Herbicidal action against [%] MATIN (Matricaria inodora; 20 g a.i./ha): 90%; Herbicidal action against [%] SETVI (Setaria viridis; 20 g a.i./ha): 80%; Herbicidal action against [%] VIOTR (Viola tricolor; 20 g a.i./ha): 90%; Herbicidal action against [%] VIOTR (Viola tricolor; 80 g a.i./ha): 80%; Herbicidal action against [%] ECHCG (Echinochloa crus-galli; 20 g a.i./ha): 90% |
| CSCCOC(=O)C1C=CC(NC(=O)C2(C)CC(c3cc(Cl)cc(C#N)c3)=NO2)C1 (mixture of isomers) [Example I-49] | 90 | 100 | 80 | 90 | 80 | 80 |  | 90 | 90 | 90 | 90 | 90 | 80 | 80 | 80 | 80 | 90 | 90 | 100 | 80 | Herbicidal action against [%] PHBPU (Pharbitis purpurea; 20 g a.i./ha): 80%; Herbicidal action against [%] STEME (Stellaria media; 20 g a.i./ha): 90%; Herbicidal action against [%] VIOTR (Viola tricolor; 20 g a.i./ha): 90%; Herbicidal action against [%] VIOTR (Viola tricolor; 80 g a.i./ha): 80% |

From patent US12185723B2, “Herbicidally active 3-phenylisoxazoline-5-carboxamides of s-containing cyclopentenylcarboxylic esters” (Bayer Aktiengesellschaft, priority 2019, dated 2025)
